Consider 12 molecules from US5847047A, “Antimicrobial composition of a polymer and a peptide forming amphiphilic helices of the magainin-type” (priority 1995, dated 1998).

Where a SMILES comes first, the peptide text is derived from it. Where no end group is shown, it is not given here.

The test system of one data set is S. aureus. The data set can be described thus: Antimicrobial activity of soluble oligopeptides, microtiter growth inhibition (MIC). In kind it is cell-based. The note with it: soluble peptide, LB broth, 37° C. How it is done: (§1) The term "MIC" refers to minimal inhibitory concentration and will be defined as the lowest concentration of either soluble peptide or peptide immobilized on a polymer that results in total kill of bacteria.
(§2) Typically, assays for antimicrobial activity of soluble oligopeptide compositions were carried out in microtiter wells. Each well was charged with 150 μl of LB broth containing cells at a final concentration of between 1×10^6 to 1×10^7 cells/ml and oligopeptide at final concentrations of 1×10^-3 to 1×10^-6 M. It is preferred that the oligopeptides be dissolved in water prior to addition to the assay medium and that cells be inoculated from mid-log phase cultures. […] Cultures showing cell growth inhibition were incubated for an additional 15 hr. at which time a final absorbance reading was taken. FIGS. 4a-d illustrate the cell growth inhibition of E. coli cultures incubated in the presence of various oligopeptides.
(§3) All manipulations with microorganisms involved the application of standard sterile techniques employed in microbiology. All cells were grown at 37° C. Cell concentration was measured by optical density measurements at 600 nm in a Perkin Elmer Model 552 UV/VIS spectrophotometer. The microorganisms used were strains of E. coli. and S. aureus. On the day prior to the assay, an overnight culture was prepared. On the following morning, the stationary phase cells were subcultured and allowed to grow to mid-log phase.
(§4) Each well was charged with LB Broth (150 mcL). The oligopeptide samples were dissolved in water and were added to achieve the appropriate final oligopeptide concentrations (ranging from 1×10^-3 to 1×10^-6 M) Finally, cells suspended in LB medium were added to a final concentration of between 1×10^6 to 1×10^7 cells/mL. The microtiter plate was covered and allowed to gently rotate in an orbital shaker. […] Control samples used for all experiments were: (a) LB broth only=uninoculated control; (b) LB broth only+cells=inoculated control.

Data set [1] has as its system E. coli. Described as above. The data set is classed as cell-based. The note with it: soluble peptide, LB broth, 37° C. How it is done:
as §1, §2, §3, §4
In FIGS. 4a-d cell growth inhibition is plotted as molar concentration of antimicrobial peptide as a function of the number of cells killed/ml. FIG. 4a-d illustrates the activity of the core oligopeptide, the N-addition analogue of formula II, the N-addition analogue of formula III, and the N-addition analogue of formula IV, respectively. All cultures were actively growing in log-phase and at a cell concentration of 2.0×10^7 cells/ml.

For data set [2], the system named is E. coli. In words: Shake flask method for peptides covalently bound to polyamide resin (CFU count). To be noted: for % Reduction E. coli: immobilized peptide on EDA-PepsynK, determined as described in Example 9; for MIC E. coli: concentration of oligopeptide immobilized on PepsynK resin via EDA linker, shake flask, phosphate buffer pH 7.2, 37° C. In kind it is cell-based. How it is done:
(§5) Occasionally, a shake flask method was employed for insoluble articles. In the shake flask method, 75 mL of 0.6 mM phosphate buffer, pH 7.2 and 0.100 mL of the stock cell culture and the oligopeptide sample were added to a 250 mL polystyrene tissue culture flask. The flasks were incubated in a shaking water bath at 37° C. At specified times (1 hour and 24 hours), an aliquot (0.100 mL) was removed from the shake flask and serial dilutions ranging from 10 to 1000-fold were made to allow the enumeration of cells on agar plates. Each agar plate was inoculated with 0.200 mL of the diluted cell suspension, and the suspension was uniformly spread on the plate. Colony-forming units CFU on the agar plates were counted after 24 hours in an incubator (37° C.). Cells were identified by visual observation and use of a colony counter. Total CFU/mL was determined by correcting the cell count for the dilution factor.
Samples of peptides corresponding to the amino acid sequences SEQ ID NO:8, SEQ ID NO:13, SEQ ID NO:14, SEQ ID NO:15 and SEQ ID NO:1, were covalently linked to the polyamide resin PepSyn K as described in Example 10 and were tested for antimicrobial activity. Five compositions (PEPSYNK-LKP, PEPSYNK-LKPGK, PEPSYNK-LKPG2 K, PEPSYNK-LKPG3 K, and PEPSYNK-KGLKP) were tested over a range of 0 to 5 mg/ml of oligopeptide. Since the covalently linked oligopeptide/polymer compositions were insoluble, the protocol for testing antimicrobial activity was modified from that for the soluble peptide compositions of Example 2. Here, a shake flask method was employed.
as §5, with “In” for “Occasionally, a shake flask method was employed for insoluble articles. In”, “oligopeptide samples, ranging from 0 to 5 mg/ml of oligopeptide” for “oligopeptide sample”, “dilutions were made” for “dilutions”, “1000-fold” for “1000-fold were made”, “enumeration or” for “enumeration of”, “factor. In this manner the minimal inhibitory concentration (MIC) of oligopeptide for covalently linked compositions corresponding to PEPSYNK-LKP, PEPSYNK-LKPGK, PEPSYNK-LKPG2 K, PEPSYNK-LKPG3 K, and PEPSYNK-KGLKP were determined.” for “factor.”
The bactericidal activity for each immobilized peptide was determined as described in Example 9. The structures and the bactericidal activities of the immobilized peptides are shown in Table V. The relative activities against E. coli are consistent with what is known about the soluble peptides. […] The reverse magainin is a much poorer bactericide than its normal sequence.

Protocol for human erythrocytes: A 5.0% stock cell solution of human erythrocytes in phosphate buffered saline (PBS) was prepared by suspending 2.0 mL packed human erythrocytes in 38 mL of phosphate buffered saline (10 mM sodium phosphate, 120 mM sodium chloride, 2.7 mM potassium chloride, pH 7.5). Samples of the four compositions recited above were added to microfuge tubes containing 0.5 mL of cell solution and 0.5 mL of PBS. Upon addition of sample, the vials were capped, gently homogenized, then allowed to gently shake in an incubator at 37° C. for 30 minutes. The samples were centrifuged to sediment the cells. The supernatants were transferred to cuvettes and the absorbances at 414 nm were read in a Perkin Elmer 552 spectrophotometer. The 0 and 100% hemolysis controls were PBS and PBS +1.0% Triton X-100, respectively.

Turning to `CC(C)C[C@H](NC(=O)[C@H](CCCCN)NC(=O)[C@H](CC(C)C)NC(=O)[C@H](CC(C)C)NC(=O)[C@H](CCCCN)NC(=O)[C@H](CCCCN)NC(=O)[C@H](CC(C)C)NC(=O)[C@H](CC(C)C)NC(=O)[C@H](CCCCN)NC(=O)[C@H](CC(C)C)NC(=O)[C@H](CC(C)C)NC(=O)[C@H](CCCCN)NC(=O)[C@H](CCCCN)NC(=O)[C@H](CC(C)C)NC(=O)CNC(=O)[C@@H](N)CCCCN)C(=O)O` [Formula II, KGLKKLLKLLKKLLKL] (H-KGLKKLLKLLKKLLKL-OH), the “Minimal Inhibitory Concentration S. aureus” value in the data set on S. aureus worked out at 15.6 µg/mL. Moreover, the “Minimal Inhibitory Concentration E. coli” value in the data set with E. coli [1] amounted to 7.8 µg/mL.
Consider `CC(C)C[C@H](NC(=O)[C@H](CCCCN)NC(=O)[C@H](CC(C)C)NC(=O)[C@H](CC(C)C)NC(=O)[C@H](CCCCN)NC(=O)[C@H](CCCCN)NC(=O)[C@H](CC(C)C)NC(=O)[C@H](CC(C)C)NC(=O)[C@H](CCCCN)NC(=O)[C@H](CC(C)C)NC(=O)[C@H](CC(C)C)NC(=O)[C@H](CCCCN)NC(=O)[C@H](CCCCN)NC(=O)[C@H](CC(C)C)NC(=O)CNC(=O)CNC(=O)[C@@H](N)CCCCN)C(=O)O` [Formula III, KGGLKKLLKLLKKLLKL] (H-KGGLKKLLKLLKKLLKL-OH), for which the “Minimal Inhibitory Concentration S. aureus” value in the data set with S. aureus worked out at 62.5 µg/mL. For the same molecule, the “Minimal Inhibitory Concentration E. coli” value in the data set with E. coli [1] was 7.8 µg/mL.
Consider `CC(C)C[C@H](NC(=O)[C@H](CCCCN)NC(=O)[C@H](CC(C)C)NC(=O)[C@H](CC(C)C)NC(=O)[C@H](CCCCN)NC(=O)[C@H](CCCCN)NC(=O)[C@H](CC(C)C)NC(=O)[C@H](CC(C)C)NC(=O)[C@H](CCCCN)NC(=O)[C@H](CC(C)C)NC(=O)[C@H](CC(C)C)NC(=O)[C@H](CCCCN)NC(=O)[C@H](CCCCN)NC(=O)[C@H](CC(C)C)NC(=O)CNC(=O)CNC(=O)CNC(=O)[C@@H](N)CCCCN)C(=O)O` [Formula IV, KGGGLKKLLKLLKKLLKL] (H-KGGGLKKLLKLLKKLLKL-OH), for which, in the data set with S. aureus, the “Minimal Inhibitory Concentration S. aureus” value is 15.6 µg/mL. Moreover, in the data set on E. coli [1], the “Minimal Inhibitory Concentration E. coli” value worked out at 7.8 µg/mL.
Turning to `CC(C)C[C@H](NC(=O)[C@H](CCCCN)NC(=O)[C@H](CC(C)C)NC(=O)[C@H](CC(C)C)NC(=O)[C@H](CCCCN)NC(=O)[C@H](CCCCN)NC(=O)[C@H](CC(C)C)NC(=O)[C@H](CC(C)C)NC(=O)[C@H](CCCCN)NC(=O)[C@H](CC(C)C)NC(=O)[C@H](CC(C)C)NC(=O)[C@H](CCCCN)NC(=O)[C@H](CCCCN)NC(=O)[C@@H](N)CC(C)C)C(=O)O` [Formula I] (H-LKKLLKLLKKLLKL-OH), in the data set on S. aureus, the “Minimal Inhibitory Concentration S. aureus” value stood at 31.2 µg/mL. Moreover, in the data set on E. coli [1], the “Minimal Inhibitory Concentration E. coli” value was determined as 15.6 µg/mL.
For “GIGKFLHSAKKFGKAFVGEIMNS (GIGKFLHSAKKFGKAFVGEIMNS; immobilized on EDA-PepsynK resin) [EDA-PepsynK reverse magainin2, reverse magainin 2 peptide immobilized on EDA-modified PepsynK resin]”, the “% Reduction E. coli” value in the data set on E. coli [2] is given as 95.14%.
As for “PepsynK-KGLKP: peptide SEQ ID NO:1 covalently linked to polyamide resin PepSyn K via non-cleavable EDA linker (KGLKKLLKLLKKLLKL; also: covalently linked to PepSyn K resin via EDA linker)”, the “% Hemolysis at >6 mg/mL” value in the data set on human erythrocytes was above 0.7%. Besides, in the data set on E. coli [2], the “MIC E. coli” value was found to be 888 µg/mL.
For “PepsynK-LKPG2K: peptide SEQ ID NO:14 covalently linked to polyamide resin PepSyn K via non-cleavable EDA linker (LKLLKKLLKLLKKLGGK; also: covalently linked to PepSyn K resin via EDA linker)”, in the data set on human erythrocytes, the “% Hemolysis at >6 mg/mL” value worked out at 1.2%. The “MIC E. coli” value against E. coli [2] was 1208 µg/mL.
On to “PepsynK-LKPG3K: peptide SEQ ID NO:15 covalently linked to polyamide resin PepSyn K via non-cleavable EDA linker (LKLLKKLLKLLKKLGGGK; also: covalently linked to PepSyn K resin via EDA linker)”, for which the “% Hemolysis at >6 mg/mL” value in the data set with human erythrocytes is given as 12.7%. In addition, the “MIC E. coli” value in the data set on E. coli [2] stood at 938 µg/mL.
Take “PepsynK-LKPGK: peptide SEQ ID NO:13 covalently linked to polyamide resin PepSyn K via non-cleavable EDA linker (LKLLKKLLKLLKKLGK; also: covalently linked to PepSyn K resin via EDA linker)”: the “% Hemolysis at >6 mg/mL” value in the data set on human erythrocytes came out at 0.7%. In addition, the “MIC E. coli” value in the data set with E. coli [2] came out at 2213 µg/mL.
“Pepsynk-LKP: peptide SEQ ID NO:8 covalently linked to polyamide resin PepSyn K via non-cleavable EDA linker (LKKLLKLLKKLLKL; also: covalently linked to PepSyn K resin via EDA linker)”: the “% Hemolysis at >6 mg/mL” value in the data set on human erythrocytes is on record as 0.9%. Moreover, the “MIC E. coli” value in the data set on E. coli [2] came out at 807 µg/mL.
“SNMIEGVFAKGFKKASHLFKGIG (SNMIEGVFAKGFKKASHLFKGIG; immobilized on EDA-PepsynK resin) [EDA-PepsynK magainin2, magainin 2 immobilized on EDA-modified PepsynK resin]”: in the data set with E. coli [2], the “% Reduction E. coli” value was 100%.
On to “V-F-A-K-G-F-K-K-A-S-H-L-F-K-G-I-G (VFAKGFKKASHLFKGIG; immobilized on EDA-PepsynK resin) [EDA-PepsynK magainin 17-mer deletion, 17-mer deletion peptide of magainin 2 immobilized on EDA-modified PepsynK resin]”, for which, in the data set on E. coli [2], the “% Reduction E. coli” value is 99.3%.
